Assay results reported in PMC6099102, “Effect of the Nature of Donor Atoms on the Thermodynamic, Kinetic and Relaxation Properties of Mn(II) Complexes Formed With Some Trisubstituted 12-Membered Macrocyclic Ligands” (Frontiers in Chemistry, 2018).

Experiments:
[1] = Stability and protonation constants and pMn of the Mn(II) complexes (pH-potentiometry and/or 1H relaxometry); format: physicochemical; settings: I = 0.15 M NaCl, 25 °C; for pMn: calculated at pH = 7.4, cM = cL = 10^−5 M; for log KMLH: protonation constant of the Mn(II) complex
Procedure: (§1) The concentration of the ligand solutions was determined by pH-potentiometric titration in the presence and absence of an excess (5–10 fold) of MnCl2. For determining the protonation constants of the investigated ligands, pH-potentiometric titrations were made by means of 0.2 M standardized NaOH in 2 and 3 mM ligand solutions in the pH-range of 1.75–11.85. All equilibrium measurements were performed at a constant 0.15 M NaCl ionic strength at 25 °C. The protonation and the stability constants of the Mn(II) complexes were determined by pH-potentiometric titrations (DOTP, DO3A, PCTA, ODO3A, DO3P) while owing to the slow formation rates of Mn(II) complexes formed with amide type ligands, the stability constants of DOTAM, DOTMA, DO3AM^H, PC3AM^H, PC3AM^Gly, PC3AM^Pip complexes were determined by out-of-cell pH-potentiomertry in combination with ^1H relaxometry. The metal-to-ligand concentration ratio in the solutions was 1:1. For the calculation of protonation constants of the ligands and the log KMnL and log KMnLHi values of the complexes, mL–pH data pairs (50–180), obtained in the pH range of 1.75–11.85 or r1obs-pH data pairs (10–15 batch samples) obtained in the pH range of 2–4.5 were used (the samples were equilibrated for 4–7 days). The equilibrium constants characterizing the deprotonation that occurs at basic pH were determined from the data obtained via direct pH-potentiometric titrations performed on the pre-formed complexes.
(§2) The pH-potentiometric titrations were carried out with a Methrohm 888 Titrando titration workstation using a Metrohm-6.0233.100 combined electrode. The samples (6.00 mL) were thermostated at 25 °C. The samples were stirred and kept under inert gas (N2) to avoid the effect of CO2. KH-phthalate (pH = 4.005) and borax (pH = 9.177) buffers were used for the pH-calibration. The method proposed by Irving et al. was used for the calculation of H^+ concentrations from the measured pH values (Irving et al., [1967]). A 0.01 M HCl (I = 0.15 M set with NaCl) solution was titrated with standardized NaOH solution of known concentration (approx. 0.2 M). The correction factor obtained as difference of calculated pH and measured pH values was used to calculate the [H^+] in the samples. The ionic product of water was determined from the same titrations (HCl/NaOH) from the data collected in the pH range of 11.20–11.85.
The relaxometric data were collected using a Bruker Minispec MQ20 NMR relaxometer. […] A datapoint plotted on figures represents an average of 5–6 T1 measurements (Figures S3–S9 in Supplementary Material). The data were fitted by using the molar r1p relaxivity value of the MnCl2 ([…] at 0.49 T and 25 °C). The equilibrium constants were calculated using the PSEQUAD program (Zékány and Nagypál, [1985]).
In order to gain information on the thermodynamic stability of the Mn(II) complexes, samples containing the metal and ligand in 1 to 1 molar ratio were studied by pH potentiometry or ^1H-relaxometry and in some cases by a combination of the two methods. The titration data were fitted by assuming the existence of [M(L)] and some protonated species ([M(HiL)]) at lower pH values. In some cases to fit the data obtained at higher pH, the formation of ternary hydroxido complexes ([M(L)(OH)]) were also included in the equilibrium model. The stability constants (KML) and the various protonation forms (KMHiL) of ML metal chelates are defined by Equations (3)–(5). However, a comparison of the stabilities of different complexes solely on the basic of their stability constants might be misleading because of the differences in ligand basicities. […] The pMn value accounts for the effect of proton competition (ligand basicity and complex protonation) on the stability constant essentially offering the same information as the conditional stability constant. Higher pMn values indicate a higher chelate stability at specified conditions. […]

[2] = Protonation constants of the ligands by pH-potentiometric titration; format: physicochemical; settings: I = 0.15 M NaCl, 25 °C; for Σ log K2H: log K1H + log K2H
Procedure: as §1, §2
The protonation and complexation equilibria of the macrocyclic ligands and their Mn(II) complexes have been studied by pH-potentiometric and relaxometric methods in the presence of 0.15 M NaCl whose ionic strength mimics the physiological conditions. The protonation constants of the ligands were evaluated by fitting the pH-V(mL) base data pairs collected in the pH-potentiometric titrations. The protonation equilibria of the ligands can be described by Equation (2). (a comparison of previously published log K^H data available in the Supplementary Material) together with the constants of H4DOTA, cis- and trans-H2DO2A derivatives given for comparison. (2) KiH=[HiL]/[Hi-1L][H^+],i=1,2,…

[3] = stability constant of the Mn(II) complex
[4] = stability constant of the Mn(II) complex by 1H-relaxometry

| SMILES | pMn [1] | log KMLH [1] | log KML [1, 3] | log K1H ([2]; ligand protonation constant) | log K2H ([2]; ligand protonation constant) | log K3H ([2]; ligand protonation constant) | log K4H ([2]; ligand protonation constant) | log K5H ([2]; ligand protonation constant) | Σ log K2H [2] | log KMHLH ([1]; second protonation constant of the Mn(II) complex) | log KMH2LH ([1]; third protonation constant of the Mn(II) complex) | log K6H ([2]; ligand protonation constant) | log KML [1, 4] | log KMLOH ([1]; ternary hydroxido complex of Mn(II)) |
| --- | --- | --- | --- | --- | --- | --- | --- | --- | --- | --- | --- | --- | --- | --- |
| O=C(O)CN1CCNCCN(CC(=O)O)CCN(CC(=O)O)CC1 [DO3A] | 8.66 | 4.26 (2) | 16.55 (4) | 10.07 (5) | 8.93 (6) | 4.43 (9) | 4.11 (7) | 1.88 (7) | 19.00 | – | – | – | – | – |
| O=P(O)(O)CN1CCNCCN(CP(=O)(O)O)CCN(CP(=O)(O)O)CC1 [DO3P] | 6.43 | 8.06 (2) | 17.45 (2) | 12.55 (2) | 11.37 (1) | 8.57 (2) | 7.02(2) | 5.36 (2) | 23.92 | 7.05 (1) | 5.31 (2) | 1.84 (2) | – | – |
| NC(=O)CN1CCN(CC(N)=O)Cc2cccc(n2)CN(CC(N)=O)CC1 [PC3AM^H] | 7.77 | – | 11.94(3) | 8.76 (3) | 4.10 (4) | – | – | – | 12.86 | – | – | – | 11.78 (8) | 10.90 (4) |
| O=C(O)CN1CCN(CC(=O)O)Cc2cccc(n2)CN(CC(=O)O)CC1 [PCTA] | 9.74 | 1.96(1) | 16.83 (1) | 9.97 (3) | 6.73 (5) | 3.22 (6) | 1.40 (9) | – | 16.70 | – | – | – | 16.64 (7) | – |
| O=C(CN1CCN(CC(=O)N2CCCCC2)Cc2cccc(n2)CN(CC(=O)N2CCCCC2)CC1)N1CCCCC1.[Mn+2] [[Mn(PC3AM^Pip)]^2+] | 8.86 | – | – | – | – | – | – | – | – | – | – | – | – | – |
